Reference: US5814666A, “Encapsulated and non-encapsulated nitric oxide generators used as antimicrobial agents” (The United States as represented by the Department of …, priority 1995, dated 1998)
In brackets after ≈: the same amount, converted by molar mass. Where a name gives a salt, the structure may show the parent alone. Read-outs that look alike come from different tables or passages of the source.

Tests used:
[1] = pH 7.4
[2] = test system: P. falciparum clone CDC/Sierra Leone I (D6); test: Anti-malaria in vitro screen, P. falciparum clone D6; conditions: Plasmodium falciparum
[3] = test system: Plasmodium falciparum; test: Anti-malaria in vitro screen, overall result; conditions: in words
[4] = test system: P. falciparum clone CDC/Indochina III (W2); test: Anti-malaria in vitro screen, P. falciparum clone W2; conditions: Plasmodium falciparum
[5] = test system: Leishmania major; test: Blocking Leishmania major growth in vitro compared with glucantime; type: cell-based; conditions: equivalent molar concentrations of NONOates and glucantime
[6] = test system: Francisella tularensis; type: in vivo, mice
[7] = Half-life of nitric oxide generators at pH 7.4 and 37° C. (Table 1)
[8] = test system: Leishmania major; test: microbe, parasite or virus in culture; type: cell-based; conditions: read-out: IC50 (growth inhibition)
[9] = test system: Francisella tularensis; test: microbe, parasite or virus in culture; type: cell-based; conditions: read-out: IC50 (growth inhibition)
[10] = test system: Candida albicans; test: microbe, parasite or virus in culture; type: cell-based; conditions: read-out: IC50 (growth inhibition)
[11] = test system: macrophages; test: NO2^- / NO release by macrophages after exposure to liposome-encapsulated or non-encapsulated NONOates (Table 8); conditions: non-encapsulated; 50 μM, 1 hr incubation, culture medium after 24 hrs
[12] = Stability of nitric oxide generators in PBS at room temperature, absorbance (Table 5); conditions: for Initial Abs. / 24-hour Abs.: PBS, at peak wavelength; for Initial Abs.: immediately; for 24-hour Abs.: room temperature; for degraded at 24 h: pbs
[13] = in words; cited from earlier work
[14] = physchem; conditions: pH 7.4
[15] = test system: DNA synthesis; conditions: in words; cited from earlier work
[16] = test system: Mycobacterium tuberculosis; conditions: direct delivery; in words; cited from earlier work
[17] = test system: tumor cells; conditions: tumor cells in vitro; in words; cited from earlier work
[18] = experiment #1, IP 200 μM two days after inoculation
[19] = pH 7.4, 37° C., result in words

With `N.N.O=S(=O)(O)[N+]([O-])=NO` [SULFI/NO] the Half-life [1] was 7 min.

In the case of `CCN(CC)[N+]([O-])=NOCOC(C)=O` [acetoxy-DEA/NO], the IC50 [2] is reported as 0.267 µg/mL (≈ 1.3 µM), the IC90 [2] is reported as 0.295 µg/mL (≈ 1.44 µM) and the anti-malarial effectiveness [3] is reported as “effective”. The IC50 [4] was 17.7 µg/mL (≈ 86.5 µM), the IC90 [4] was 19.2 µg/mL (≈ 93.4 µM) and the “times more effective than glucantime at blocking Leishmania major growth” value (shortened to “times more effective than glucantime”) [5] was 8.9 times. For the same molecule, the “#Dead/Total” value [6, 18] was 2/4, the “% Protected” value [6, 18] was 50% and the Half-life [7, 19] was “stable”.

For `NCCN(CCN)[N+]([O-])=NO` [DETA/NO], the IC50 [8] was < 10 mM, the IC50 [2] was 4.83 µg/mL (≈ 29.6 µM) and the IC90 [2] was 10.1 µg/mL (≈ 62 µM). For the same molecule, the IC50 [4] was 0.037 µg/mL (≈ 0.227 µM), the IC90 [4] was 0.094 µg/mL (≈ 0.576 µM) and the “times more effective than glucantime” value [5] was 7.2 times. The IC50 [9] was < 100 µM, the IC50 [10] was < 100 µM and the “NO2 --(nmol/ml)” value [11] was 0 nmol/mL.

With `C=CON=[N+]([O-])N(CC)CC` [V-DEA/NO] the Half-life [7, 19] was “stable”.

With `CCCON=[N+]([O-])N(CC)CC` [P-DEA/NO] the Half-life [7, 19] was “stable”.

In the case of `COCON=[N+]([O-])NC(C)C` [MOM-IPA/NO], the Half-life [7, 19] is reported as “stable”, the “Initial Abs.” value [12] is reported as 3.530 and the “24-hour Abs.” value [12] is reported as 3.340. The degraded at 24 h [12] was 5%.

With `CCN(CC)[N+]([O-])=NOCOC` [MOM-DEA/NO] the “#Dead/Total” value [6, 18] was 1/5, the “% Protected” value [6, 18] was 80% and the “#Dead/Total” value ([6]; experiment #2, IP 200 μM two days after inoculation) was 1/5. For the same molecule, the “% Protected” value ([6]; experiment #2, IP 200 μM, control 40% protected) was 80%, the anti-microbial effects ([6]; two subsequent experiments, in words) was “not found to be significant in two subsequent experiments” and the Half-life ([7]; pH 7.4) was 7200 min.

In the case of `CCN(CC)[N+]([O-])=NOS(=O)(=O)N(C)C` [S-DEA/NO], the Half-life ([7]; pH 7.4) is reported as 30 min.

For `C=CCON=[N+]([O-])N(CC)CC` [A-DEA/NO], the Half-life [7, 19] was “stable”.

For `C=CCON=[N+]([O-])NC(C)C` [A-IPA/NO], the Half-life [7, 19] was “stable”.

With `CCON=[N+]([O-])N(CC)CC` [E-DEA/NO] the Half-life [7, 19] was “stable”.

In the case of `CCOC(=O)CON=[N+]([O-])NC(C)C` [CEM-IPA/NO], the Half-life [7, 19] is reported as “stable”.

In the case of `CCN(CC)[N+]([O-])=NOC` [M-DEA/NO], the Half-life [7, 19] is reported as “stable”, the “Initial Abs.” value [12] is reported as 3.454 and the “24-hour Abs.” value [12] is reported as 3.020. It also gave a degraded at 24 h [12] of 14%.

In the case of `CCN(CC)[N+]([O-])=NO` [DEA/NO, diethylamine-bis(nitric oxide) adduct sodium salt], the “#Dead/Total” value [6, 18] is reported as 5/5, the “% Protected” value [6, 18] is reported as 0% and the Half-life ([7]; pH 7.4) is reported as 2 min.

In the case of `O=[N+]([O-])OCC(CO[N+](=O)[O-])O[N+](=O)[O-]` [glyceryl trinitrate], the tolerance / toxicity [13] is listed as “development of tolerance”.

With `NCCCNCCCCN(CCCN)[N+]([O-])=NO` [SPER/NO, spermine-bis(nitric oxide) adduct monohydrate] the IC50 [8] was < 0.1 mM, the IC50 [2] was 5.31 µg/mL and the IC90 [2] was 9.53 µg/mL. The Half-life [14] was 39 min, the anti-malarial effectiveness [3] was “effective” and the IC50 [4] was 5.65 µg/mL. For the same molecule, the IC90 [4] was 10 µg/mL, the “times more effective than glucantime” value [5] was 6.7 times and the IC50 [9] was < 10 µM. For the same molecule, the IC50 [10] was < 100 µM and the “NO2 --(nmol/ml)” value [11] was 1 ± 1 nmol/mL.

For `CC(=O)N[C@H](C(=O)O)C(C)(C)SN=O` (racemic) [S-nitroso-N-acetylpenicillamine], the “inhibition of DNA synthesis” value [15] is listed as “effective at inhibiting DNA synthesis”.

With `CON=[N+]([O-])NC(C)C` [M-IPA/NO] the Half-life [7, 19] was “stable”.

For `CCN(CC)[N+]([O-])=NOCCBr` [BE-DEA/NO], the Half-life [7, 19] was “stable”.

With `CCN(CC)[N+]([O-])=NOCC(C)O` (stereo not drawn) [HP-DEA/NO] the Half-life [7, 19] was “stable”.

In the case of `CCN(CC)[N+]([O-])=NOCCO` [HE-DEA/NO], the Half-life [7, 19] is reported as “stable”.

`[Na+].[Na+].[O-][N+]([O-])=NO` [OXI/NO, sodium trioxodinitrate(II) monohydrate] gave a Half-life ([7]; pH 7.4, 37° C.) of 2 min.

In the case of nitric oxide, the “killing of intracellular pathogens” value [16] is given as “kills intracellular pathogens such as Mycobacterium tuberculosis” and the “inhibition of DNA synthesis and mitochondrial respiration” value [17] is given as “inhibit DNA synthesis and mitochondrial respiration of tumor cells in vitro”.
